Data: US8481536B2, “Benzotriazine inhibitors of kinases” (TargeGen, Inc., priority 2004, dated 2013)

What was measured:
Pdgfrβ = Pdgfrβ (Homo sapiens (Human), UniProt P09619); experiment: Pdgfrβ kinase inhibition in vitro (luciferase-based residual ATP); assay type: biochemical; details: 500 nM ATP, PTK2 peptide, 60 minutes at 37 C; read-out: PDGFR IC50
Description: (§1) The ability of compounds of the present invention to inhibit the activity of three groups of kinases was tested. Kinases tested included the src family (primarily src and yes), some angiogenic growth factor receptors (Fgfr1, Vegfr, and Pdgfrβ) and the ephrin, EphB4. All kinase reactions were conducted in 96-well plates with a final reaction volume of 50 ul.
Pdgfrβ (0.16 ug/well, Panvera/Invitrogen) 500 nM ATP and the PTK2 peptide (700 uM) were combined with compound and reaction buffer as noted above for src. The reaction was incubated for 60 minutes at 37 C, and the residual ATP concentration was determined using the luciferase-based technique also noted above.
(§2) The test results for inhibition of Src kinase are presented in Table 1, and the test results for inhibition of some other kinases (i.e., Yes, EphB4, and Pdgfrβ) are presented in Table 2.

Recombinant human c-Src = Recombinant human c-Src (Homo sapiens (Human), UniProt P12931); experiment: Src kinase inhibition in vitro (luciferase-based residual ATP, KinaseGlo); assay type: biochemical; details: ATP 3 μM, PTK2 substrate, 90 minutes at room temperature
Description: as §1
After reacting for about 90 minutes at room temperature, residual ATP was determined using a luciferase-based assay (KinaseGlo, Promega Corp.) as a measure of kinase activity. Data from four wells were then averaged and used to determine IC50 values for the test compounds (Prism software package, GraphPad Software, San Diego Calif.).
as §2

Sequence of Recombinant human c-Src (P12931 whole entry, looked up): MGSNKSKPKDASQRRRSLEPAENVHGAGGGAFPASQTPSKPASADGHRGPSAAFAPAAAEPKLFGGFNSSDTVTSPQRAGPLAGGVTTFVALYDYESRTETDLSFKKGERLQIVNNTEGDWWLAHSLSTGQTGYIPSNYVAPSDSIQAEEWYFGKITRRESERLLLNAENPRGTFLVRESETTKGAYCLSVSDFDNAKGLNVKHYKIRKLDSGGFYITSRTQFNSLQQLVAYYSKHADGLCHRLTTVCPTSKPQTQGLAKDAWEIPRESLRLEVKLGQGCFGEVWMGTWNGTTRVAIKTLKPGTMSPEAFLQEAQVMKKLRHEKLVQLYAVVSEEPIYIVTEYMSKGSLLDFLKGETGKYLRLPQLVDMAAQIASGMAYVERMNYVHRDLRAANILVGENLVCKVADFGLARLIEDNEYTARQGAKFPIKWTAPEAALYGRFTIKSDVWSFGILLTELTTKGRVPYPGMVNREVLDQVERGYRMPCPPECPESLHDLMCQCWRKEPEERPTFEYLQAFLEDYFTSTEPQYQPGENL
Sequence of Pdgfrβ (P09619 33-1106): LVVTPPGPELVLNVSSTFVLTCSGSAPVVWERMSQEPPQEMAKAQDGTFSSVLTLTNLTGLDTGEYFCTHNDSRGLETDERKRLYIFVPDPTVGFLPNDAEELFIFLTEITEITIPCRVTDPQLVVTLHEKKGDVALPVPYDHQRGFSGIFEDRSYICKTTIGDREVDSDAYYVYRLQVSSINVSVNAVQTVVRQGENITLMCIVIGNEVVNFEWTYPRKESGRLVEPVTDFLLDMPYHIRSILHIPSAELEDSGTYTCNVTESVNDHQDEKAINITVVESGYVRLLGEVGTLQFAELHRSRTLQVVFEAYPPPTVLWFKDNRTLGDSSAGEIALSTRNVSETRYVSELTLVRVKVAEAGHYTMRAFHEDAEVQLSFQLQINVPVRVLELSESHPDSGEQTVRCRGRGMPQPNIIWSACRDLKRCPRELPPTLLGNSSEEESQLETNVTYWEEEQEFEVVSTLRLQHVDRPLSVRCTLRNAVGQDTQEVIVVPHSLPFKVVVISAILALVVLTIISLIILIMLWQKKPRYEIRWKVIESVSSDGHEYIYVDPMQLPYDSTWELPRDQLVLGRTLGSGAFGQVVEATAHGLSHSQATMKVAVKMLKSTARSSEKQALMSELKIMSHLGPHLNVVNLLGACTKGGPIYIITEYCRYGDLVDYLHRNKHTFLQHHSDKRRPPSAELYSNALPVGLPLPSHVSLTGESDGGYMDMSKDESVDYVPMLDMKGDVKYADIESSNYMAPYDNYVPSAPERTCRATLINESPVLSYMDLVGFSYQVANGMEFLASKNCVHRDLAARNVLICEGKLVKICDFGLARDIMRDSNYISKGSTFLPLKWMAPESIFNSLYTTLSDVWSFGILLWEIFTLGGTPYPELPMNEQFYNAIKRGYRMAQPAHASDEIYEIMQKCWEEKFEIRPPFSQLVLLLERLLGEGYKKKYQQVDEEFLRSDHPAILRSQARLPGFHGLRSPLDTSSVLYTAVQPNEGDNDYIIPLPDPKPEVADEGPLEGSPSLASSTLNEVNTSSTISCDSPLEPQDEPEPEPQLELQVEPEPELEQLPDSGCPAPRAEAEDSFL

Structure (SMILES)	IC50 (Pdgfrβ) [µM]	IC50 (Recombinant human c-Src) [µM]
Cc1cc(-c2cc(O)ccc2Cl)cc2nnc(Nc3ccc(S(=O)(=O)NCCN4CCCC4)cc3)nc12	0.0017	–
Cc1cc2nc(Nc3ccc(S(=O)(=O)NCCN4CCCC4)cc3)nnc2cc1-c1cc(O)ccc1Cl	0.0019	–
Cc1cc(-c2cc(O)ccc2Cl)cc2nnc(Nc3ccc(S(=O)(=O)CCCN4CCCC4)cc3)nc12	0.0029	–
Cc1cc(O)cc(C)c1-c1cc(C)c2nc(Nc3ccc(OCCN4CCCC4)cc3)nnc2c1	0.0411	–
Cc1cccc(C)c1-c1cc(C)c2nc(Nc3nc(C(=O)NCCN4CCCC4)cs3)nnc2c1 [2-[7-(2,6-dimethyl-phenyl)-5-methyl-benzo[1,2,4]triazin-3-ylamino]-thiazole-4-carboxylic acid (2-pyrrolidin-1-yl-ethyl)-amide]	0.06	–
Cc1cccc(C)c1-c1cc(C)c2nc(Nc3cccc(S(N)(=O)=O)c3)nnc2c1 [3-[7-(2,6-dimethyl-phenyl)-5-methyl-benzo[1,2,4]triazin-3-ylamino]-benzenesulfonamide]	0.0163	–
Cc1cc(-c2cc(O)ccc2Cl)cc2nnc(Nc3cccc(C(=O)NCCN(C)C)c3)nc12 [3-[7-(2-chloro-5-hydroxy-phenyl)-5-methyl-benzo[1,2,4]triazin-3-ylamino]-N-(2-dimethylamino-ethyl)-benzamide]	0.0053	–
Cc1cc2nc(Nc3ccc(OCCN4CCCC4)cc3)nnc2cc1-c1cccc(O)c1 [3-{6-methyl-3-[4-(2-pyrrolidin-1-yl-ethoxy)-phenylamino]-benzo[1,2,4]triazin-7-yl}-phenol]	0.0074	–
COc1cc2nc(Nc3ccc(S(=O)(=O)NCCN4CCCC4)cc3)nnc2cc1-c1ccccc1C [4-(6-methoxy-7-o-tolyl-benzo[1,2,4]triazin-3-ylamino)-N-(2-pyrrolidin-1-yl-ethyl)-benzenesulfonamide]	0.0393	–
Cc1cc(-c2c(Cl)ccc(O)c2Cl)cc2nnc(Nc3ccc(S(=O)(=O)NCCN4CCCC4)cc3)nc12 [4-[7-(2,6-dichloro-3-hydroxy-phenyl)-5-methyl-benzo[1,2,4]triazin-3-ylamino]-N-(2-pyrrolidin-1-yl-ethyl)-benzenesulfonamide]	0.008	–
Cc1cc(-c2cc(O)ccc2Cl)cc2nnc(Nc3ccc(S(=O)(=O)N(C)CCN4CCCC4)cc3)nc12 [4-[7-(2-chloro-5-hydroxy-phenyl)-5-methyl-benzo[1,2,4]triazin-3-ylamino]-N-methyl-N-(2-pyrrolidin-1-yl-ethyl)-benzenesulfonamide]	0.0031	–
Cc1cc(-c2cc(O)ccc2Cl)cc2nnc(Nc3cccc(N(C)C)c3)nc12 [4-chloro-3-[3-(3-dimethylamino-phenylamino)-5-methyl-benzo[1,2,4]triazin-7-yl]-phenol]	0.0208	–
Cc1cc(-c2cc(O)ccc2Cl)cc2nnc(Nc3ccc(N4CCOCC4)nc3)nc12 [4-chloro-3-[5-methyl-3-(6-morpholin-4-yl-pyridin-3-ylamino)-benzo[1,2,4]triazin-7-yl]-phenol]	0.0021	–
Cc1cc(-c2cc(O)ccc2Cl)cc2nnc(Nc3cccnc3)nc12 [4-chloro-3-[5-methyl-3-(pyridin-3-ylamino)-benzo[1,2,4]triazin-7-yl]-phenol]	0.0235	–
Cc1cc(-c2cc(O)ccc2Cl)cc2nnc(Nc3ccc(S(=O)(=O)C4CCNCC4)cc3)nc12 [4-chloro-3-{5-methyl-3-[4-(piperidine-4-sulfonyl)-phenylamino]-benzo[1,2,4]triazin-7-yl}-phenol]	0.0028	–
Cc1cc2nc(Nc3ccc(OCCN4CCCC4)cc3)nnc2cc1-c1cc(O)ccc1Cl [4-chloro-3-{6-methyl-3-[4-(2-pyrrolidin-1-yl-ethoxy)phenylamino]-benzo[1,2,4]triazin-7-yl}-phenol]	0.0057	–
Cc1cccc(C)c1-c1cc(C)c2nc(Nc3ccc(C(=O)NCCN4CCCC4)o3)nnc2c1 [5-[7-(2,6-dimethyl-phenyl)-5-methyl-benzo[1,2,4]triazin-3-ylamino]-furan-2-carboxylic acid (2-pyrrolidin-1-yl-ethyl)-amide]	0.117	–
Cc1cc(-c2cc(O)ccc2Cl)cc2nnc(Nc3ccc(C(=O)NCCN4CCCC4)o3)nc12 [5-[7-(2-chloro-5-hydroxy-phenyl)-5-methyl-benzo[1,2,4]triazin-3-ylamino]-furan-2-carboxylic acid (2-pyrrolidin-1-yl-ethyl)-amide]	0.0144	–
CC(=O)Nc1cc(-c2c(C)cccc2C)cc2nnc(Nc3ccc(S(=O)(=O)NCCN4CCCC4)cc3)nc12 [N-{7-(2,6-dimethyl-phenyl)-3-[4-(2-pyrrolidin-1-yl-ethylsulfamoyl)-phenylamino]-benzo[1,2,4]triazin-5-yl}-acetamide]	1.85	–
Cc1cc(-c2c(Cl)cccc2Cl)cc2nnc(Nc3ccc(OCCN4CCCC4)cc3)nc12 [[7-(2,6-dichloro-phenyl)-5-methyl-benzo[1,2,4]triazin-3-yl]-[4-(2-pyrrolidin-1-yl-ethoxy)-phenyl]-amine]	0.015	–
Cc1cccc(C)c1-c1cc(C)c2nc(Nc3ccccc3)nnc2c1 [[7-(2,6-dimethyl-phenyl)-5-methyl-benzo[1,2,4]triazin-3-yl]-phenyl-amine]	0.628	–
Cc1cccc(C)c1-c1cc(C)c2nc(Nc3cccc(OCCCN4CCN(C)CC4)c3)nnc2c1 [[7-(2,6-dimethyl-phenyl)-5-methyl-benzo[1,2,4]triazin-3-yl]-{3-[3-(4-methyl-piperazin-1-yl)-propoxy]-phenyl}-amine]	0.0763	–
Cc1cccc(C)c1-c1cc(C)c2nc(Nc3ccc(OCCCN4CCN(C)CC4)cc3)nnc2c1 [[7-(2,6-dimethyl-phenyl)-5-methyl-benzo[1,2,4]triazin-3-yl]-{4-[3-(4-methyl-piperazin-1-yl)-propoxy]-phenyl}-amine]	0.0503	–
COc1cccc(Cl)c1-c1cc(C)c2nc(Nc3ccc(OCCN4CCCC4)cc3)nnc2c1 [[7-(2-chloro-6-methoxy-phenyl)-5-methyl-benzo[1,2,4]triazin-3-yl]-[4-(2-pyrrolidin-1-yl-ethoxy)-phenyl]-amine]	–	0.505
Cc1noc(C)c1-c1cc(C)c2nc(Nc3ccc(OCCN4CCCC4)cc3)nnc2c1 [[7-(3,5-dimethyl-isoxazol-4-yl)-5-methyl-benzo[1,2,4]triazin-3-yl]-[4-(2-pyrrolidin-1-yl-ethoxy)-phenyl]-amine]	–	0.207
COc1ccc(Cl)cc1-c1cc(C)c2nc(Nc3ccc(OCCN4CCCC4)cc3)nnc2c1 [[7-(5-chloro-2-methoxy-phenyl)-5-methyl-benzo[1,2,4]triazin-3-yl]-[4-(2-pyrrolidin-1-yl-ethoxy)-phenyl]-amine]	–	1.2
Cc1ccc(F)cc1-c1cc2nnc(Nc3ccc(OCCN4CCCC4)cc3)nc2cc1C [[7-(5-fluoro-2-methyl-phenyl)-6-methyl-benzo[1,2,4]triazin-3-yl]-[4-(2-pyrrolidin-1-yl-ethoxy)-phenyl]-amine]	0.0261	–
Cc1cc2nc(Nc3ccc(S(=O)(=O)NCCN4CCCC4)cc3)nnc2cc1Br [[7-Bromo-6-methyl-benzo[1,2,4]triazin-3-ylamino]-N-(2-pyrrolidin-1-yl-ethyl)-benzene-4-sulfonamide]	–	> 10
Cc1cc(-c2cc(O)ccc2Cl)cc2nnc(Nc3ccc(C(=O)N4CCNCC4)cc3)nc12 [{4-[7-(2-chloro-5-hydroxy-phenyl)-5-methyl-benzo[1,2,4]triazin-3-ylamino]-phenyl}-piperazin-1-yl-methanone]	0.0012	–
